Laboratory results reported in US7208517B1, “Endothelin antagonists” (Abbott Labortories, priority 1994, dated 2007).
Converted amounts (≈) assume the structure as drawn.

How the values were obtained:
[1] = system: male subjects with hormone refractory prostate cancer; test: Prostate specific antigen (PSA) level assay in serum of treated subjects; assay type: in vivo, human; conditions: subjects treated with placebo or 2.5 mg or 10 mg
Procedure: (§1) Studies were performed on male subjects with asymptomatic hormone refractory prostate cancer with rising PSA levels and on male subjects with symptomatic hormone refractory prostate cancer with rising PSA levels and pain. Subjects in the phase II studies had castrate levels of testosterone, either due to pharmacologic intervention, via leuprolide (Lupron®) or goserelin (Zoladex®), or via surgical castration. Subjects received ABT-627 or placebo. The following tests were conducted:
(§2) ABT-627 was formulated in 2.5 and 10 mg doses. An oral liquid formulation of ABT-627 was also prepared as follows: 1 mg/ml ABT-627, 50% glycerin, 14% alcohol, and water. Matching placebos were also provided.
A number of recognized or putative biochemical markers of disease progression have been used to monitor treatment of individuals with prostate cancer. […]
The effect of ABT-627 administeration on prostate specific antigen (PSA) levels in human subject serum samples was determined using the procedure described in the Chiron Diagnostics ACS: Centaur PSA2 Assay. […]
Briefly, a subject population was treated with a placebo or 2.5 mg or 10 mg of ABT-627. […] A direct relationship exists between the amount of PSA present in the patient sample and the RLU's (relative light units) detected.

[2] = system: male subjects with hormone refractory prostate cancer; test: Acid phosphatase levels in serum of treated subjects; assay type: in vivo, human; conditions: subjects treated with placebo or 2.5 mg or 10 mg
Procedure: as §1, §2
The enzyme Acid Phosphatase (ACP) catalyzes the hydrolysis of alpha-naphthyl phosphate to alpha-naphthol and inorganic phosphate. The alpha-naphthol immediately reacts with fast red TR salt to produce a yellow chromophore with an absorbance maximum at 405 nm. The rate of increase in absorbance at 405 nm is directly proportional to ACP activity in the sample. ACP activity was determined in the presence and absence of L-tartrate, the difference being attributed to prostatic acid phosphatase activity.
Briefly, a subject population was treated with a placebo or 2.5 mg or 10 mg of ABT-627. […] The mixture was incubated for another 5 minutes, and a second absorbance was read to provide a final absorbance. […]

[3] = system: male subjects with hormone refractory prostate cancer; test: Interleukin-6 levels in serum of treated subjects; assay type: in vivo, human; conditions: subjects treated versus placebo
Procedure: as §1, §2
The effect of ABT-627 adminstration on Interleukin-6 levels in human serum samples was determined at Quintiles Laboratories using a sandwich immunoassay. Human serum samples and standards were incubated in microtiter plate wells coated with a monoclonal anti-IL-6 antibody, in the presence of a second monoclonal anti IL-6 antibody, linked to acetylcholinesterase. After incubation, the wells were washed, and the bound enzymatic activity was measured using a chromogenic substrate. The intensity of the color was proportional to the concentration of IL-6 in the sample or standard.

[4] = system: male subjects with hormone refractory prostate cancer; test: Bone alkaline phosphatase (BAP) levels of treated subjects; assay type: in vivo, human; conditions: subjects treated versus placebo
Procedure: as §1, §2
Markers of osteoblastic activity were assessed using […]. Bone markers include bone alkaline phosphatase (BAP), deoxypridinoline, and N-telopeptide of Type I collagen. Blood samples were collected prior to dosing on Day 1, Day 42, Day 84, Day 168, and every 28 days after Day 168, with a final collection on the last day of the study.
Bone Alkaline Phosphatase levels were determined using the bone-specific Alkphase-B® assay published by Metra Biosystems (Mountain View, Calif.).

[5] = Determination of plasma protein binding (ultrafiltration, HPLC); assay type: in vitro ADME; parameters: fraction unbound at 1 h: dose or concentration left out as unconfirmed; conditions: fresh plasma, 1 hour at room temperature, read-out: percent of bound compound (plasma protein binding, % PB) (converted)
Procedure: A stock solution of the test compound in 50% ethanol (2 mg/mL) was diluted 10× into PBS. A 0.4 mL sample of this secondary stock solution was added to 3.6 mL of fresh plasma, and incubated at room temperature for 1 hour. A 1 mL sample of this incubation mixture was transferred to a Centrifree ultrafiltration tube. The sample was centrifuged in a fixed-bucket rotor for approximately 2 min and the filtrate was discarded. The sample was centrifuged for another 15–30 min. A 100 μL sample of the ultrafiltrate was transfered to a micro HPLC sample vial containing […] of HPLC mobile phase and mixed thoroughly. A 50 μL sample was injected and the concentration of drug in the ultrafiltrate was determined by HPLC analysis compared against a standard sample prepared identically in the absence of plasma. Ultrafiltrate concentrations are calculated from a calibration curve. Protein binding is calculated according to the equation: % PB=[1−(Cu/Ci)]*100%
where Cu is the ultrafiltrate concentration and Ci is the initial plasma concentration.

[6] = pH-solubility profile: maximum solubility in aqueous media at varying pH; assay type: physicochemical; conditions: aqueous buffer
From the text: Such increased aqueous solubility, coupled with the enhanced potency resulting from decreased protein binding, might make such compounds preferred for development as parenteral agents.

Row | fraction unbound at 1 h [5] | solubility ([6]; pH 5.1, about 25° C.) | solubility ([6]; pH 6.5, about 25° C.) | solubility ([6]; pH 7.1, about 25° C.) | solubility ([6]; pH 7.6, about 25° C.) | SMILES | rate of increase of PSA in serum (AUC, FIG. 2) [1] | rate of increase and average change from baseline for acid phosphatase (AUC, FIG. 7) [2] | average change in baseline for Interleukin-6 (AUC, FIG. 1) [3] | BAP levels (AUC, FIG. 5) [4]
1 | – | – | – | – | – | CCCCCN(CCCC)C(=O)CN1C[C@H](c2ccc3c(c2)OCO3)[C@@H](C(=O)O)[C@@H]1c1ccc(OC)cc1 [ABT-627] | rate of increase of PSA in the serum samples decreases | the rate of increase and the average change from baseline for acid phosphatase was decreased | the average change in baseline for Interleukin-6 was lower | BAP levels decreased
2 | 0.08 | > 3300 µg/mL | > 3400 µg/mL | 3540 µg/mL (≈ 6.66 mM) | 3550 µg/mL (≈ 6.68 mM) | CCCCN(C(=O)CN1CC(c2ccc3c(c2)OCO3)C(C(=O)O)C1c1ccc(OC)cc1)c1cccnc1 (stereo not drawn) [compound 531] | – | – | – | –
